The numbers were not newly measured in US20100234288A1, “SUSTAINED RELEASE PHARMACEUTICAL COMPOSITION ON THE BASIS OF RELEASE SYSTEM COMPRISING AN ACID-SOLUBLE POLYMER AND A pH-DEPENDENT POLYMER” (PANACEA BIOTEC LTD, priority 2006, published 2010), which cites them from elsewhere.

Consider `O=C1Cc2cc(CCN3CCN(c4nsc5ccccc45)CC3)c(Cl)cc2N1` [Ziprasidone, 5-[2-[4-(1,2-benzisothiazol-3-yl)-1-piperazinyl]ethyl]-6-chloro-1,3-dihydro-2H-indol-2-one], for which the “time to reach peak plasma concentrations” value (after oral administration) was 6 to 8 h. For the same molecule, the “effect of food on absorption” value (presence of food, gastrointestinal absorption) is “doubles the absorption”.
